Assay results published in patent US12655116B2, “Substituted isophthalic acid diamides” (Bayer Aktiengesellschaft, priority 2020, dated 2026).

Columns and labels:
[1] = test system: MATIN; assay: Post-emergence herbicidal action against MATIN; format: in vivo, Matricaria inodora; conditions: Tripleurospermum inodorum, 504 h, dosage 20 g/ha
How it was run: (§1)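 Herbicidal effect was scored visually in percent after about 3 weeks in the greenhouse. Plants had been raised in sandy loam and treated post-emergence at the one-leaf stage with formulated compound at 600 to 800 l/ha water plus 0.2% wetting agent.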

[2] = test system: VIOTR; assay: Post-emergence herbicidal action against VIOTR; format: in vivo, Viola tricolor; conditions: Viola tricolor, 504 h
How it was run: as §1

[3] = test system: STEME; assay: Pre-emergence herbicidal action against STEME; format: in vivo, Stellaria media; conditions: Stellaria media, 504 h; for pest or weed control at 20 g/ha: dosage 20 g/ha; for pest or weed control at 80 g/ha: dosage 80 g/ha
How it was run: (§2)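 Herbicidal effect was assessed 3 weeks after treatment by visual comparison with untreated controls, 100% denoting dead plants. Aqueous WP or EC preparations had been applied at 600 to 800 l/ha with 0.2% wetting agent to the soil covering freshly sown seeds.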

[4] = test system: SETVI; assay: Post-emergence herbicidal action against SETVI; format: in vivo, Setaria viridis; conditions: Setaria viridis, 504 h; for pest or weed control at 20 g/ha: dosage 20 g/ha
How it was run: as §1

[5] = test system: AMARE; assay: Pre-emergence herbicidal action against AMARE; format: in vivo, Amaranthus retroflexus; conditions: Amaranthus retroflexus, 504 h, scored visually after 3 weeks vs untreated controls, 100% = plants have died, 0% = like control plants
How it was run: as §2

[6] = test system: ALOMY; assay: Post-emergence herbicidal action against ALOMY; format: in vivo, Alopecurus myosuroides; conditions: Alopecurus myosuroides, 504 h, dosage 20 g/ha, visual assessment about 3 weeks after treatment vs untreated controls
How it was run: as §1

[7] = test system: ABUTH; assay: Post-emergence herbicidal action against ABUTH; format: in vivo, Abutilon theophrasti; conditions: Abutilon theophrasti, 504 h, visual assessment about 3 weeks after treatment vs untreated controls; for pest or weed control at 5 g/ha: dosage 5 g/ha; for pest or weed control at 20 g/ha: dosage 20 g/ha
How it was run: as §1

[8] = test system: PHBPU; assay: Post-emergence herbicidal action against PHBPU; format: in vivo, Pharbitis purpurea; conditions: Ipomoea purpurea, 504 h; for pest or weed control at 20 g/ha: dosage 20 g/ha
How it was run: as §1

[9] = test system: STEME; assay: Post-emergence herbicidal action against STEME; format: in vivo, Stellaria media; conditions: Stellaria media, 504 h; for pest or weed control at 5 g/ha: dosage 5 g/ha
How it was run: as §1

[10] = test system: LOLRI; assay: Pre-emergence herbicidal action against LOLRI; format: in vivo, Lolium rigidum; conditions: Lolium rigidum, 504 h, 80 g/ha
How it was run: as §2

[11] = test system: ABUTH; assay: Pre-emergence herbicidal action against ABUTH; format: in vivo, Abutilon theophrasti; conditions: Abutilon theophrasti, 504 h; for pest or weed control at 80 g/ha: scored visually after 3 weeks vs untreated controls (100% = plants have died, 0% = like control plants)
How it was run: as §2

[12] = test system: MATIN; assay: Pre-emergence herbicidal action against MATIN; format: in vivo, Matricaria inodora; conditions: Tripleurospermum inodorum, 504 h; for pest or weed control at 20 g/ha: dosage 20 g/ha; for pest or weed control at 80 g/ha: dosage 80 g/ha
How it was run: as §2

[13] = test system: PHBPU; assay: Pre-emergence herbicidal action against PHBPU; format: in vivo, Pharbitis purpurea; conditions: Ipomoea purpurea, 504 h, dosage 80 g/ha
How it was run: as §2

[14] = test system: ECHCG; assay: Post-emergence herbicidal action against ECHCG; format: in vivo, Echinochloa crus-galli; conditions: Echinochloa crus-galli, 504 h; for pest or weed control at 20 g/ha: dosage 20 g/ha
How it was run: as §1

[15] = test system: POLCO; assay: Pre-emergence herbicidal action against POLCO; format: in vivo, Polygonum convolvulus; conditions: Fallopia convolvulus, 504 h, dosage 80 g/ha
How it was run: as §2

[16] = test system: SETVI; assay: Pre-emergence herbicidal action against SETVI; format: in vivo, Setaria viridis; conditions: Setaria viridis, 504 h; for pest or weed control at 80 g/ha: dosage 80 g/ha
How it was run: as §2

[17] = test system: AMARE; assay: Post-emergence herbicidal action against AMARE; format: in vivo, Amaranthus retroflexus; conditions: Amaranthus retroflexus, 504 h, 20 g/ha, visual assessment about 3 weeks after treatment, 100% = plants have died, 0% = like control plants
How it was run: as §1

[18] = test system: VERPE; assay: Pre-emergence herbicidal action against VERPE; format: in vivo, Veronica persica; conditions: Veronica persica, 504 h; for pest or weed control at 80 g/ha: dosage 80 g/ha
How it was run: as §2

[19] = test system: HORMU; assay: Post-emergence herbicidal action against HORMU; format: in vivo, Hordeum murinum; conditions: Hordeum murinum, 504 h, dosage 20 g/ha
Description: Seeds of monocotyledonous and dicotyledonous weed and crop plants are laid out in sandy loam soil in wood-fiber pots, covered with soil and cultivated in a greenhouse under good growth conditions. 2 to 3 weeks after sowing, the test plants are treated at the one-leaf stage. The compounds of the invention, formulated in the form of wettable powders (WP) or as emulsion concentrates (EC), are then sprayed onto the green parts of the plants in the form of an aqueous suspension or emulsion at a water application rate equivalent to 600 to 800 l/ha, with addition of 0.2% wetting agent. After the test plants have been left to stand in the greenhouse under optimal growth conditions for about 3 weeks, the action of the preparations is assessed visually in comparison to untreated controls (herbicidal action in percent (%): 100% activity=the plants have died, 0% activity=like control plants). […] The tables below illustrate, in an illustrative manner, the post-emergence herbicidal action of the compounds of the invention, the herbicidal activity being stated in percent.

[20] = test system: VERPE; assay: Post-emergence herbicidal action against VERPE; format: in vivo, Veronica persica; conditions: Veronica persica, 504 h
How it was run: as §1

[21] = test system: DIGSA; assay: Post-emergence herbicidal action against DIGSA; format: in vivo, Digitaria sanguinalis; conditions: Digitaria sanguinalis, 504 h
How it was run: as §1

[22] = test system: ALOMY; assay: Pre-emergence herbicidal action against ALOMY; format: in vivo, Alopecurus myosuroides; conditions: Alopecurus myosuroides, 504 h; 80 g/ha, pre-emergence, scored visually after 3 weeks vs untreated controls (100% = plants have died, 0% = like control plants)
How it was run: as §2

[23] = test system: ECHCG; assay: Pre-emergence herbicidal action against ECHCG; format: in vivo, Echinochloa crus-galli; conditions: Echinochloa crus-galli, 504 h, 80 g/ha
How it was run: as §2

[24] = test system: AVEFA; assay: Pre-emergence herbicidal action against AVEFA; format: in vivo, Avena fatua; conditions: Avena fatua, 504 h; 80 g/ha, pre-emergence
How it was run: as §2

[25] = test system: DIGSA; assay: Pre-emergence herbicidal action against DIGSA; format: in vivo, Digitaria sanguinalis; conditions: Digitaria sanguinalis, 504 h; for pest or weed control at 20 g/ha: dosage 20 g/ha; for pest or weed control at 80 g/ha: dosage 80 g/ha
How it was run: as §2

[26] = test system: VIOTR; assay: Pre-emergence herbicidal action against VIOTR; format: in vivo, Viola tricolor; conditions: Viola tricolor, 504 h; for pest or weed control at 20 g/ha: dosage 20 g/ha; for pest or weed control at 80 g/ha: dosage 80 g/ha
How it was run: as §2

[27] = test system: AVEFA; assay: Post-emergence herbicidal action against AVEFA; format: in vivo, Avena fatua; conditions: Avena fatua, 504 h, 20 g/ha, visual assessment about 3 weeks after treatment, 100% = plants have died, 0% = like control plants
How it was run: as §1

SMILES | pest or weed control at 20 g/ha [1] | pest or weed control at 20 g/ha [2] | pest or weed control at 20 g/ha [3] | pest or weed control at 80 g/ha [3] | pest or weed control at 20 g/ha [4] | pest or weed control at 20 g/ha [5] | pest or weed control at 80 g/ha [5] | pest or weed control at 20 g/ha [6] | pest or weed control at 5 g/ha [7] | pest or weed control at 20 g/ha [7] | pest or weed control at 20 g/ha [8] | pest or weed control at 20 g/ha [9] | pest or weed control at 5 g/ha [9] | pest or weed control at 80 g/ha [10] | pest or weed control at 80 g/ha [11] | pest or weed control at 20 g/ha [12] | pest or weed control at 80 g/ha [12] | pest or weed control at 80 g/ha [13] | pest or weed control at 20 g/ha [14] | pest or weed control at 80 g/ha [15] | other results
CNC(=O)c1c(C(F)(F)F)ccc(C(=O)Nc2nnnn2C)c1C [Example 1-25] | 100% | 100% | 80% | 90% | 80% | 100% | 100% | 100% | 100% | 100% | 80% | 100% | 80% | 80% | 100% | 90% | 100% | 90% | 100% | 80% | pest or weed control at 5 g/ha ([2]; 5 g/ha): 100%; pest or weed control at 20 g/ha ([16]; dosage 20 g/ha): 80%; pest or weed control at 80 g/ha [16]: 100%; pest or weed control at 20 g/ha [17]: 100%; pest or weed control at 20 g/ha ([18]; dosage 20 g/ha): 80%; pest or weed control at 80 g/ha [18]: 100%; pest or weed control at 20 g/ha [19]: 100%; pest or weed control at 20 g/ha [20]: 80%; pest or weed control at 5 g/ha [21]: 90%; pest or weed control at 20 g/ha [21]: 100%; pest or weed control at 80 g/ha [22]: 90%; pest or weed control at 80 g/ha [23]: 100%; pest or weed control at 80 g/ha [24]: 90%; pest or weed control at 20 g/ha [25]: 90%; pest or weed control at 80 g/ha [25]: 100%; pest or weed control at 20 g/ha [26]: 80%; pest or weed control at 80 g/ha [26]: 100%
CNC(=O)c1c(C(F)F)ccc(C(=O)Nc2nnnn2C)c1SC [Example 1-87] | 80% | 80% | 90% | 100% | 90% | 90% | 100% | 80% | 90% | 90% | 90% | 100% | 80% | 80% | 100% | 80% | 90% | 80% | 80% | 90% | pest or weed control at 5 g/ha ([4]; dosage 5 g/ha): 80%; pest or weed control at 20 g/ha [27]: 80%; pest or weed control at 5 g/ha ([8]; dosage 5 g/ha): 80%; pest or weed control at 20 g/ha ([11]; dosage 20 g/ha, scored visually after 3 weeks vs untreated controls, 100% = plants have died, 0% = like control plants, read-out: Pre-emergence action against ABUTH (herbicidal activity in percent)): 100%; pest or weed control at 5 g/ha ([14]; dosage 5 g/ha): 80%; pest or weed control at 80 g/ha [16]: 100%; pest or weed control at 20 g/ha [17]: 100%; pest or weed control at 80 g/ha [18]: 90%; pest or weed control at 20 g/ha [19]: 80%; pest or weed control at 5 g/ha ([20]; 5 g/ha): 80%; pest or weed control at 20 g/ha [20]: 90%; pest or weed control at 5 g/ha [21]: 100%; pest or weed control at 20 g/ha [21]: 100%; pest or weed control at 80 g/ha [22]: 90%; pest or weed control at 80 g/ha [23]: 100%; pest or weed control at 80 g/ha [24]: 90%; pest or weed control at 20 g/ha [25]: 100%; pest or weed control at 80 g/ha [25]: 100%; pest or weed control at 20 g/ha [26]: 80%; pest or weed control at 80 g/ha [26]: 100%
